Like-named read-outs stand apart in the source and are kept apart here.
Columns and labels:
Test in all cases: Tumor cell proliferation inhibitory activity test in vitro (MTT)
breast cancer cell MCF-7 = type: cell-based; conditions: read-out: IC50 of compounds for tumor cells, Activity, MCF-7
Source text: (§1) Human non-small cell lung cancer cell line NCI-H460, human small cell lung cancer cell line NCI-H446, human hepatocellular carcinoma cell strain HepG2, human colon carcinoma cell strain HCT116, human prostate cancer PC-3, human melanoma A375, colon carcinoma cell HCT-8, breast cancer cell MCF-7, ovarian cancer cell A2780s, drug-resistant ovarian cancer cell A2780/T, drug-resistant colon cancer cell HCT-8/T and doxorubicin-resistant breast cancer cell MCF-7/ADR are obtained from American Type Culture Collection (ATCC) and are cultured and preserved by the cell bank of State Key Laboratory of Biotherapy of Sichuan University. Above tumor cells are routinely cultured in DMEM culture medium containing 10% fetal bovine serum, 100 U·mL-1 penicillin and 100 mg·L−1 streptomycin, and in an incubator at 37° C. and with saturated humidity and 5% CO2 concentration.
(§2) Fill diluted cell suspension in the 96-well plate with 1000-10000 cells per well and incubate it in CO2 incubator overnight.
(§3) Replace with new medium containing various concentrations of compounds to be tested for the test group and replace with fresh medium with equal volume for the control group, each group is arranged with 5 parallel wells and incubated in an incubator at 37° C. and with 5% CO2 concentration.
(§4) Discard the supernatant after 72 hours, add 200 μL freshly prepared serum-free medium containing 0.2 mg/mL MTT into each well, continue to incubate at 37° C. for 1-4 hours, then stop incubation, carefully remove the culture supernatant in the wells and add 200 uL DMSO (dimethyl sulfoxide), oscillate with a miniature ultrasonic oscillator for 15-20 minutes to make the crystal fully dissolved and mixed. Determine OD values using a microplate reader at 570 nm with a reference wavelength of 450 nm.
(§5) Draw curves based on the growth inhibition rate for tumor cells of the same sample with different concentrations to get dose-response curve, so as to calculate IC50. Repeat each test for 3 times, measure IC50 (μM) or nanomolor concentration (nM) of compounds in different tumor cells.

prostate cancer PC-3 = type: cell-based, human; conditions: 72 hours, read-out: IC50 of compounds for tumor cells, Activity, PC-3
Source text: as §1, §2, §3, §4, §5

[1] = system: hepatocellular carcinoma cell HEPG2; type: cell-based, human; conditions: read-out: IC50 of compounds for tumor cells, Activity, HEPG2
Source text: as §1, §2, §3, §4, §5

melanoma A375 = type: cell-based, human; conditions: read-out: IC50 of compounds for tumor cells, Activity, A375
Source text: as §1, §2, §3, §4, §5

[2] = system: non-small cell lung cancer cell line NCI-H460; type: cell-based, human; conditions: read-out: IC50 of compounds for tumor cells, Activity, H460
Source text: as §1, §2, §3, §4, §5

[3] = system: colon carcinoma cell HCT116; type: cell-based, human; conditions: read-out: IC50 of compounds for tumor cells, Activity, HCT116
Source text: as §1, §2, §3, §4, §5

[4] = Homo sapiens, NCI-H460, 72 hours
[5] = Homo sapiens, HCT-116, 72 hours

SMILES | IC50 (breast cancer cell MCF-7; Homo sapiens, MCF7, 72 hours) [nM] | IC50 (prostate cancer PC-3; Homo sapiens) [nM] | IC50 ([1]; Homo sapiens, HepG2, 72 hours) [nM] | IC50 (melanoma A375; Homo sapiens, A-375, 72 hours) [nM] | IC50 [2, 4] [nM] | IC50 [3, 5] [nM] | IC50 (breast cancer cell MCF-7; 72 hours) [nM] | IC50 (prostate cancer PC-3) [nM] | IC50 ([1]; 72 hours) [nM] | IC50 (melanoma A375; 72 hours) [nM] | IC50 ([2]; 72 hours) [nM] | IC50 ([3]; 72 hours) [nM]
O=c1cc(-c2ccc(-c3ccc4c(c3)OCO4)s2)c2ccccc2o1 [COUM-31, 4-(5-(3,4-(methylenedioxy)benzene)thiophene-2-yl)-coumarin] | > 5000 | > 5000 | > 5000 | > 5000 | > 5000 | > 5000 | – | – | – | – | – | –
CCOC(=O)c1cccc(-c2ccc(-c3cc(=O)oc4ccccc34)s2)c1 [COUM-32] | > 5000 | > 5000 | > 5000 | > 5000 | > 5000 | > 5000 | – | – | – | – | – | –
COc1cccc(-c2ccc(-c3cc(=O)oc4cc(OC)ccc34)s2)c1 [COUM-33, 4-(5-(3-methoxybenzene)thiophene-2-yl)-7-methoxyl-coumarin] | > 5000 | > 5000 | > 5000 | > 5000 | > 5000 | > 5000 | – | – | – | – | – | –
COc1ccc2c(-c3ccc(-c4ccccc4Cl)s3)cc(=O)oc2c1 [COUM-34, 4-(5-(2-chlorobenzene)thiophene-2-yl)-7-methoxyl-coumarin] | > 5000 | > 5000 | > 5000 | > 5000 | > 5000 | > 5000 | – | – | – | – | – | –
COc1ccc2c(-c3ccc(-c4cccc(Cl)c4)s3)cc(=O)oc2c1 [COUM-35, 4-(5-(3-chlorobenzene)thiophene-2-yl)-7-methoxyl-coumarin] | > 5000 | > 5000 | > 5000 | > 5000 | > 5000 | > 5000 | – | – | – | – | – | –
COc1ccc2c(c1)CCCN2c1cc(=O)oc2ccccc12 [COUM-36, 4-(6-methoxy-3,4-dihydroquinoline-1(2H)-yl) coumarin] | > 5000 | > 5000 | > 5000 | > 5000 | > 5000 | > 5000 | – | – | – | – | – | –
COc1ccc2c(c1)CN(c1cc(=O)oc3ccccc13)CCC2 [COUM-37, 4-(8-methoxy-1,3,4,5-tetrahydro-2H-benzoazepine-2-yl) Coumarin] | 100 to 5000 | 100 to 5000 | 100 to 5000 | 100 to 5000 | 100 to 5000 | 100 to 5000 | – | – | – | – | – | –
COc1ccc2c(c1)CCCN2c1cc(=O)oc2cc(OC)ccc12 [COUM-38, 4-(6-methoxy-3,4-dihydroquinoline-1(211)-yl)-7 methoxycoumarin] | 100 to 5000 | 100 to 5000 | 100 to 5000 | 100 to 5000 | 100 to 5000 | 100 to 5000 | – | – | – | – | – | –
COc1ccc2c(c1)CN(c1cc(=O)oc3cc(OC)ccc13)CCC2 [COUM-39, 4-(8-methoxy-1,3,4,5-tetrahydro-2H-benzoazepine-2-yl)-7-methoxycoumarin] | 100 to 5000 | 100 to 5000 | 100 to 5000 | 100 to 5000 | 100 to 5000 | 100 to 5000 | – | – | – | – | – | –
COc1ccc(N(C)c2cc(=O)oc3cc(OC)ccc23)cc1 [COUM-40, 4-(N-methyl-N-(4-methoxybenzene)-amino)-7-methoxycoumarin] | 10 to 100 | 10 to 100 | 10 to 100 | 10 to 100 | 10 to 100 | 10 to 100 | – | – | – | – | – | –
CCN(CC)c1ccc2c(N(C)c3ccc(OC)cc3)cc(=O)oc2c1 [COUM-41, 4-(N-methyl-N-(4-methoxybenzene)-amino)-7-diethylaminocoumarin] | 10 to 100 | 10 to 100 | 10 to 100 | 10 to 100 | 10 to 100 | 10 to 100 | – | – | – | – | – | –
COc1ccc(N(C)c2cc(=O)oc3ccccc23)cc1 [COUM-43, 4-(N-methyl-N-(4-methoxybenzene)-amino) coumarin] | 10 to 100 | 10 to 100 | 10 to 100 | 10 to 100 | 10 to 100 | 10 to 100 | – | – | – | – | – | –
COc1ccc2c(N(C)c3cc(OC)c(OC)c(OC)c3)cc(=O)oc2c1 [COUM-44] | 10 to 100 | 10 to 100 | 10 to 100 | 10 to 100 | 10 to 100 | 10 to 100 | – | – | – | – | – | –
CCOC(=O)COc1cc(N(C)c2cc(=O)oc3ccccc23)ccc1OC [COUM-45, 4-(N-methyl-N-(4-methoxy-3-(2-ethoxy-2-carbonylethoxy)-benzene)-amino) coumarin] | 10 to 100 | 10 to 100 | 10 to 100 | 10 to 100 | 10 to 100 | 10 to 100 | – | – | – | – | – | –
COc1ccc(N(C)c2cc(=O)oc3ccccc23)cc1OCCN1CCOCC1 [COUM-49, 4-(N-methyl-N-(4-methoxy-3-(2-morpholinoethoxy)-benzene)-amino) Coumarin] | – | – | – | – | – | – | 100 to 5000 | 100 to 5000 | 100 to 5000 | 100 to 5000 | 100 to 5000 | 100 to 5000
COc1ccc(N(C)c2cc(=O)oc3ccccc23)cc1OCCN1CCSCC1 [COUM-50, 4-(N-methyl-N-(4-methoxy-3-(2-thiomorpholinoethoxy)-benzene)-amino) Coumarin] | – | – | – | – | – | – | 10 to 100 | 10 to 100 | 10 to 100 | 10 to 100 | 10 to 100 | 10 to 100
COc1ccc(N(C)c2cc(=O)oc3ccccc23)cc1OCCN1CCCCC1 [COUM-51, 4-(N-methyl-N-(4-methoxy-3-(2-piperidinoethoxy)-benzene)-amino) Coumarin] | – | – | – | – | – | – | > 5000 | > 5000 | > 5000 | > 5000 | > 5000 | > 5000
COc1ccc(N(C)c2cc(=O)oc3ccccc23)cc1OS(=O)(=O)Cc1ccc(C)cc1 [COUM-55, 4-(N-methyl-N-(4-methoxy-3-(4-methylbenzene) methanesulfonate-benzene)-amino) Coumarin] | – | – | – | – | – | – | 100 to 5000 | 100 to 5000 | 100 to 5000 | 100 to 5000 | 100 to 5000 | 100 to 5000
CCOc1cc(N(C)c2cc(=O)oc3ccccc23)ccc1OC [COUM-58, 4-(N-methyl-N-(4-methoxy-3-ethoxy-benzene)-amino) Coumarin] | – | – | – | – | – | – | > 5000 | > 5000 | > 5000 | > 5000 | > 5000 | > 5000
COc1ccc(N(C)c2cc(=O)oc3ccccc23)cc1OC(=O)CCCl [COUM-60, 4-(N-methyl-N-(4-methoxy-3-(2-chloroethylcarbonyloxy)-benzene)-amino) Coumarin] | – | – | – | – | – | – | 100 to 5000 | 100 to 5000 | 100 to 5000 | 100 to 5000 | 100 to 5000 | 100 to 5000
COc1ccc(N(C)c2cc(=O)oc3ccccc23)cc1OC(=O)C(CCSC)NC(=O)OC(C)(C)C (stereo not drawn) [COUM-86, 4-(N-methyl-N-(4-methoxy-3-(Boc-methionine)benzene)amino) Coumarin] | 100 to 5000 | 100 to 5000 | 100 to 5000 | 100 to 5000 | 100 to 5000 | 100 to 5000 | – | – | – | – | – | –
COC(=O)CCCCCCCCCCOc1cc(N(C)c2cc(=O)oc3ccccc23)ccc1OC [COUM-94, 4-(N-methyl-N-(4-methoxy-3-(1-methyl ester-decane-oxy)phenyl)-amino) Coumarin] | > 5000 | > 5000 | > 5000 | > 5000 | > 5000 | > 5000 | – | – | – | – | – | –
COc1ccc(N(C)c2cc(=O)oc3ccccc23)cc1NC(=O)C1CCCC1 [COUM-97, 4-(N-methyl-N-(4-methoxy-3-(cyclopentylcarbonylamino)phenyl)-amino) Coumarin] | 100 to 5000 | 100 to 5000 | 100 to 5000 | 100 to 5000 | 100 to 5000 | 100 to 5000 | – | – | – | – | – | –
COc1ccc(N(C)c2cc(=O)oc3ccccc23)cc1NC(=O)CCC(=O)O [COUM-98, 4-(N-methyl-N-(4-methoxy-3-(1-carboxylic acid-propanecarbonylamino-)phenyl)-amino) Coumarin] | 100 to 5000 | 100 to 5000 | 100 to 5000 | 100 to 5000 | 100 to 5000 | 100 to 5000 | – | – | – | – | – | –

— patent US10544134B2, “4-substituted coumarin derivatives and preparation methods and uses thereof” (SI CHUAN UNIVERSITY, priority 2015, dated 2020)
